Assays:
[1] = for metabolite formation over time: samples every 30 min for 2 h
Method: Parent compounds were incubated at final concentrations of either (a) 5 µM or (b) 50 µM (for chlorfenapyr) with pooled human liver microsomes (HLM; mixed gender, n = 150; BioIVT; West Sussex, UK) at corresponding protein concentrations of (a) 0.52 mg/mL or (b) 5.2 mg/mL. Incubations were performed in the absence or presence of NADPH at final concentrations of (a) 1 mM or (b) 10 mM, respectively, using a thermostated orbital shaker at 37 °C and 150 rpm. Reactions were terminated at designated time points by the addition of acetonitrile/methanol (3:1, v/v). Samples were then centrifuged at 10,000× g for 10 min, and the resulting supernatants were analysed by LC-MS/MS.
All analytes were measured using an Acquity UPLC H-Class system coupled to a Xevo TQ-S micro mass spectrometer (Waters). Chromatographic separation was performed on an Acquity UPLC BEH C18 column (2.1 × 50 mm, 1.7 µm) with a mobile phase consisting of 0.1% formic acid in water (A) and acetonitrile (B). Unless otherwise stated, the column was maintained at 30 °C and operated at a flow rate of 0.4 mL/min. The standard gradient was 95% A from 0 to 1.0 min, decreased to 2% A by 1.5 min, held until 4.0 min, returned to 95% A at 4.3 min, and held until 5.0 min. […] The mass spectrometer operated in electrospray ionisation (ESI) mode. Compound-specific MRM transitions, cone voltages, and collision energies for all analytes are listed in Supplementary Table S2.
Int. J. Mol. Sci. 2025, 26, x FOR PEER REVIEW 3 of 5
Supplementary Figure S3: Quantification of specific metabolite formation from selected parent/metabolite pairs in a human liver microsomes (HLM) assay. Parent compounds (PAR) were incubated at a concentration of 5 µM (50 µM for chlorfenapyr) with HLM in the absence (dashed line, open symbols) or presence of NADPH (solid lines, closed symbols). Samples were taken every 30 min for 2 h (+NADPH) or at 2 h only (- NADPH). The remaining fraction of the PAR was quantified for each sample. Additionally, one key metabolite (MET) was measured. Its amount is expressed as fraction of PAR converted to MET, assuming an equimolar PAR to MET reaction, 100 % indicates a complete conversion. The middle-dashed line indicates a metabolite formation of at least 10% of PAR. Data are means of two measurements n.d. = not detected.
(1 picture or pasted object on this page, not shown here)

LUHMES cells = details: rat liver S9 50 µg/mL in testing module, 2 h preincubation, RFP-LUHMES; toxicity increased with NADPH
Method: Figure 4 A strategy to incorporate metabolic competence into in vitro DNT testing methods. (A) A schematic overview of a sequential metabolism and testing approach. The “metabolisation module” uses hepatic post-mitochondrial fractions (S9) to generate metabolite mixtures in the presence or absence of cofactors (NADPH, glucose-6-phosphate, MgCl2). These metabolite mixtures are tested in the “testing module” in a concentration-dependent manner after serial pre-dilutions. Metabolite mixtures are added as a fraction of 10% to the media volume of the “testing module”. The testing module may be a cell-based neurotoxicity (NT) or developmental neurotoxicity (DNT) assay, such as the neurite outgrowth or migration assay. Here, the Mito-Met neurite outgrowth assay, as in Figure 1, was used. […] The curves represent data from three independent experiments and were fitted using a four-parameter Hill function. […] The data represent three independent experiments. The indicated concentrations are “testing module” concentrations.
To further evaluate our modular pre-activation strategy for identifying metabolite-mediated hazard, we tested a broader panel of compounds. For each compound (parent), a single concentration was used in the metabolisation module. The metabolite mixtures were generated in the absence or presence of NADPH. These metabolite mixtures were serially diluted and assessed using the MitoMet neurite outgrowth assay. As a measure of potency, EC25 values were determined, and potency ratios were calculated to compare the effects of NADPH-dependent versus NADPH-independent metabolism.
Figure 5 The effect of NADPH-dependent hepatic metabolism on the DNT of selected compounds. (A) A strategy scheme to assess the effect of metabolic enzymes on the outcome of cell-based DNT assays. Metabolite mixtures are generated using the NADPH-(in)dependent metabolic activity of S9. NADPH-independent metabolism is shown in green (light grey). NADPH-dependent metabolism is shown in red (dark grey). […] (B–F) The concentration-dependent effect of metabolite mixtures on neurite outgrowth was measured as in Figure 1, with the following modifications: red-fluorescent-protein (RFP)-expressing LUHMES cells were used. As the assay endpoint, the RFP fluorescence of neurites was used instead of calcein staining. The curves represent data from three independent experiments and were fitted using a four-parameter Hill function. From this, an EC25 was calculated. Bold numbers indicate the fold changes between EC25 values of the NADPH-(in)dependent metabolite mixtures, with the direction of the arrow reflecting the shift in sensitivity. Note that the x-axes indicate nominal concentrations of parent compounds. […] Similar images were used for neurite quantification. The right image (red frame) of the pairs was obtained with NADPH. The black arrowheads above the curves indicate the experimental conditions used to record images. The scale bar in orange corresponds to 50 µm.
The MitoMet neurite outgrowth assay was performed as previously described. In brief, all cell culture dishes and flasks were pre-coated with 50 μg/mL poly-l-ornithine (PLO) and 1 μg/mL fibronectin. Proliferating LUHMES cells were maintained in AdvDMEM/F12 containing L-glutamine (2 mM), N2 supplement (1x), and FGF (40 ng/mL). For pre-differentiation, the cells were replated at a density of 46,000 cells/cm^2 one day prior to the induction of differentiation (defined as the day of differentiation, Day −1). Differentiation was initiated by exchanging the culture medium for AdvDMEM/F12 supplemented with L-glutamine (2 mM), N2 supplement (1x), dibutyryl-cAMP (1 mM), tetracycline (1 µg/mL), and GDNF (2 ng/mL). After two days of differentiation (Day 2), the cells were replated (100,000 cells/cm^2) into 96-well plates.

[2] = human liver microsomes, listed under the metabolite

For `O=C(c1ccccc1)c1ccc(O)cc1` [4-Hydroxybenzophenone], the “extent of metabolite formation” value ([1]; human liver microsomes, result in words) was “only trace amounts” and the “metabolite formation over time” value [1, 2] was “time-dependent increase in metabolite formation”.

In the case of `CN(c1c(Br)cc(Br)cc1Br)c1c([N+](=O)[O-])cc([N+](=O)[O-])cc1C(F)(F)F` [Bromethalin], the “fold change between EC25 values of NADPH-independent and NADPH-dependent metabolite mixtures (toxification)” value (LUHMES cells) is reported as 8 x.

For `CCOCn1c(-c2ccc(Cl)cc2)c(C#N)c(Br)c1C(F)(F)F` [Chlorfenapyr], the “fold change between EC25 values of NADPH-independent and NADPH-dependent metabolite mixtures (toxification)” value (LUHMES cells) was > 6 x.

For `N#Cc1c(-c2ccc(Cl)cc2)[nH]c(C(F)(F)F)c1Br` [Tralopyril], the “cofactor (NADPH) dependence of metabolite formation” value ([1]; human liver microsomes ± NADPH, result in words) was “clearly dependent on NADPH”, the “metabolite formation over time” value [1, 2] was “time-dependent increase in metabolite formation” and the “conversion rate of parent to metabolite” value ([1]; human liver microsomes, up to 2 h, listed under the metabolite) was “approximately 10%”.

Source: PMC12428754, “Testing Strategies for Metabolite-Mediated Neurotoxicity” (International Journal of Molecular Sciences, 2025)
